Data reported in US12655088B2, “Compound for treating Alzheimer's disease” (XIAMEN UNIVERSITY, priority 2020, dated 2026).

Tested on: microglia of C57BL/6 mice
Test: LPS-induced inflammatory response of primary microglia (real-time PCR of Il1b and Il6)
Assay type: cell-based
Conditions: 50 ng/mL LPS, 10 μM compound, 6 hours
Method: (§1) After the cells were treated for 6 hours, RNAs were extracted by TRIzol (Thermo Fisher Scientific), and then reverse-transcribed using Rever Tra Ace qPCR RT Kit (TOYOBO), and real-time fluorescence quantification PCR was performed using FastStart Universal SYBR Green Master (Roche) to detect the transcription levels of inflammation-related genes Il1b and Il6.
as §1, with “gene Il1b.” for “genes Il1b and Il6.”

Row | SMILES | LPS-induced Il1b expression
1 | OCCNCc1ccccc1NCc1cccc(OC(F)(F)F)c1 [MZ75] | can significantly reduce
2 | OCCNCc1cc(Br)ccc1NCc1ccc(F)c(C(F)(F)F)c1 [MZ76] | can significantly reduce
3 | OCCNCc1cc(Br)ccc1NCc1cccc(OC(F)(F)F)c1 [MZ77] | can significantly reduce
4 | NCc1cc(Br)ccc1OCc1ccc(F)c(C(F)(F)F)c1 [XMU1, (5-bromo-2-((4-fluoro-3-(trifluoromethyl)benzyl)oxy)phenyl)methanamine] | can significantly reduce

Biological target: T1, USP25 (His-USP25^a.a.157-706 recombinant protein, deubiquitinase catalytic domain) (Homo sapiens, UniProt Q9UHP3)
T1 sequence (Q9UHP3 157-706): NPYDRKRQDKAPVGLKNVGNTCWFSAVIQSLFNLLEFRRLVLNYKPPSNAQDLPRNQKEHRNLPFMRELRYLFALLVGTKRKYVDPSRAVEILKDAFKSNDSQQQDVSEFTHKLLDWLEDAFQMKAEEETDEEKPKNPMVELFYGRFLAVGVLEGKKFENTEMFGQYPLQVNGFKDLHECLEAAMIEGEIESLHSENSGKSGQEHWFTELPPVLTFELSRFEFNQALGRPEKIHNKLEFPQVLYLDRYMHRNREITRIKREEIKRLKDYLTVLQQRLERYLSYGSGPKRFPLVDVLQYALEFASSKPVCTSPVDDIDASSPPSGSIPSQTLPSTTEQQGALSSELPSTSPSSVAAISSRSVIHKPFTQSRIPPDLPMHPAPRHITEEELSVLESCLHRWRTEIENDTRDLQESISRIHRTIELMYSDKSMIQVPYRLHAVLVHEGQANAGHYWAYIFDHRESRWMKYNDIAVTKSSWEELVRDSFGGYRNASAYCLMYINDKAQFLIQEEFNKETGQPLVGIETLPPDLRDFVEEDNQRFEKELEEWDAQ
Test: Screening of USP25 inhibitors with Ubiquitin-Rhodamine 110
Conditions: 10 μM compound, 33.3 nM His-USP25^157-706, 133.3 nM Ubiquitin-Rhodamine 110
Source text: And then, the fluorescence intensity of Ubiquitin-Rhodamine 110 was detected by a Tecan Spark multifunctional microplate reader (Tecan, Switzerland).

Row | deubiquitinase activity of USP25 (Ubiquitin-Rhodamine 110 fluorescence intensity) | SMILES
5 | can significantly inhibit | OCCNCc1ccc(OC(F)F)c(OCc2cc(C(F)(F)F)cc(C(F)(F)F)c2)c1 [MZ3]
6 | can significantly inhibit | CN1CCN(Cc2ccc(OC(F)F)c(OCc3cc(C(F)(F)F)cc(C(F)(F)F)c3)c2)CC1 [MZ23]
7 | can significantly inhibit | COc1cc(OC)c(CN2CCN(CCO)CC2)c(OCc2cc(C(F)(F)F)cc(C(F)(F)F)c2)c1 [MZ24]
8 | can significantly inhibit | CCN(CC)CCNCc1ccc(OC(F)F)c(OCc2cc(C(F)(F)F)cc(C(F)(F)F)c2)c1 [MZ26]
9 | can significantly inhibit | Cc1ccc(OCc2ccc(F)c(C(F)(F)F)c2)c(CN2CCN(CCO)CC2)c1 [MZ32]
10 | can significantly inhibit | CCN1CCN(Cc2cc(Br)ccc2OCc2ccc(F)c(C(F)(F)F)c2)CC1 [MZ33]
11 | can significantly inhibit | CCN(CC)CCNCc1cc(Br)ccc1OCc1cc(F)c(F)cc1F [MZ34]
12 | can significantly inhibit | OCc1cc(Br)ccc1OCc1ccc(F)c(C(F)(F)F)c1 [MZ35]
13 | can significantly inhibit | Fc1ccc(COc2ccc(Br)cc2CN(CCC2CCN(Cc3ccccc3)CC2)Cc2cc(Br)ccc2OCc2ccc(F)c(C(F)(F)F)c2)cc1C(F)(F)F [MZ36]
14 | can significantly inhibit | O=Cc1cc(Br)ccc1OCc1ccc(F)c(C(F)(F)F)c1 [MZ39, 5-bromo-2-(4-fluoro-3-(trifluoromethyl)benzyloxy)benzaldehyde]
15 | can significantly inhibit | O=Cc1ccc(OC(F)F)c(OCc2cc(C(F)(F)F)cc(C(F)(F)F)c2)c1 [MZ42]
16 | can significantly inhibit | COc1cc(OC)c(C=O)c(OCc2ccc(F)c(C(F)(F)F)c2)c1 [MZ43]
17 | can significantly inhibit | COc1cc(OC)c(CNCCO)c(OCc2ccc(F)c(C(F)(F)F)c2)c1 [MZ68]
18 | can significantly inhibit | COc1cc(OC)c(CNCCO)c(OCc2cc(C(F)(F)F)cc(C(F)(F)F)c2)c1 [MZ69]
19 | can significantly inhibit | COc1ccc(CNCCO)cc1OCc1ccc(F)c(C(F)(F)F)c1 [MZ71]
20 | can significantly inhibit | COc1ccc(CNCCO)cc1OCc1cc(C(F)(F)F)cc(C(F)(F)F)c1 [MZ72]
21 | can significantly inhibit | OCCNCc1ccccc1NCc1ccc(F)c(C(F)(F)F)c1 [MZ74]
22 | can significantly inhibit | OCCNCc1cc(Br)ccc1NCc1ccc(F)c(C(F)(F)F)c1 [MZ76]
23 | can significantly inhibit | OCCNCc1cc(Br)ccc1NCc1cccc(OC(F)(F)F)c1 [MZ77]

Second part, the molecule before the results:

Row | SMILES | deubiquitinase activity of USP25 (Ubiquitin-Rhodamine 110 fluorescence intensity)
24 | OCCNCc1cc(Br)ccc1OCc1cc(C(F)(F)F)cc(C(F)(F)F)c1 [MZ1] | can significantly inhibit
25 | COc1cc(OC)c(CN2CCN(C)CC2)c(OCc2cc(C(F)(F)F)cc(C(F)(F)F)c2)c1 [MZ4] | can significantly inhibit
26 | COc1cc(OC)c(CNc2ccc(Br)cn2)c(OCc2cc(C(F)(F)F)cc(C(F)(F)F)c2)c1 [MZ5] | can significantly inhibit
27 | OCCN1CCN(Cc2ccc(OC(F)F)c(OCc3cc(C(F)(F)F)cc(C(F)(F)F)c3)c2)CC1 [MZ25] | can significantly inhibit
28 | CCN(CC)CCNCc1ccc(OC(F)F)c(OCc2cc(F)c(F)cc2F)c1 [MZ27] | can significantly inhibit
29 | CN1CCN(Cc2ccc(OC(F)F)c(OCc3cc(F)c(F)cc3F)c2)CC1 [MZ28] | can significantly inhibit
30 | OCCN1CCN(Cc2ccc(OC(F)F)c(OCc3cc(F)c(F)cc3F)c2)CC1 [MZ29] | can significantly inhibit
31 | Fc1cc(F)c(COc2cc(CN3CCc4ccccc4C3)ccc2OC(F)F)cc1F [MZ30] | can significantly inhibit
32 | Fc1cc(COc2ccc(Br)cc2CNCCc2c[nH]c3ccccc23)ccc1C(F)(F)F [MZ31] | can significantly inhibit
33 | Fc1ccc(COc2ccc(Br)cc2CNCCC2CCN(Cc3ccccc3)CC2)cc1C(F)(F)F [MZ37] | can significantly inhibit
34 | O=Cc1cc(Br)ccc1OCc1cc(F)c(F)cc1F [MZ38] | can significantly inhibit
35 | O=Cc1ccc(OCc2ccc(F)c(C(F)(F)F)c2)c(OC(F)F)c1 [MZ40] | can significantly inhibit
36 | COc1cc(OC)c(C=O)c(OCc2cc(C(F)(F)F)cc(C(F)(F)F)c2)c1 [MZ41] | can significantly inhibit
37 | OCCNCc1ccccc1OCc1ccc(F)c(C(F)(F)F)c1 [MZ66] | can significantly inhibit
38 | OCCNCc1ccccc1OCc1cc(C(F)(F)F)cc(C(F)(F)F)c1 [MZ67] | can significantly inhibit
39 | OCCNCc1ccccc1NCc1cccc(OC(F)(F)F)c1 [MZ75] | can significantly inhibit
40 | NCc1cc(Br)ccc1OCc1ccc(F)c(C(F)(F)F)c1 [XMU1, (5-bromo-2-((4-fluoro-3-(trifluoromethyl)benzyl)oxy)phenyl)methanamine] | can significantly inhibit

Tested on: Mouse microglial cell line BV2
Test: LPS-induced inflammatory response in microglia cell line BV2 (real-time PCR of Il1b)
Assay type: cell-based
Conditions: BV2, 25 ng/mL LPS, 10 μM compound, 24 hours
Method: Mouse microglial cell line BV2 was treated with 25 ng/mL lipopolysaccharide (LPS) and 10 μM MZ3, respectively.
as §1, with “24” for “6”, “gene Il1b.” for “genes Il1b and Il6.”
as §1, with “12” for “6”, “gene Il1b.” for “genes Il1b and Il6.”
Mouse microglial cell line BV2 was treated with 100 ng/mL lipopolysaccharide (LPS) and 10 μM MZ24, MZ25, MZ26, MZ28, MZ29 and MZ31, respectively.

Row | SMILES | LPS-induced Il1b expression
41 | OCCNCc1ccc(OC(F)F)c(OCc2cc(C(F)(F)F)cc(C(F)(F)F)c2)c1 [MZ3] | can significantly reduce

Same assay, conditions: BV2, 50 ng/mL LPS, 10 μM compound, 12 hours

Row | SMILES | LPS-induced Il1b expression
42 | CN1CCN(Cc2ccc(OC(F)F)c(OCc3cc(C(F)(F)F)cc(C(F)(F)F)c3)c2)CC1 [MZ23] | can significantly reduce
43 | CCN(CC)CCNCc1cc(Br)ccc1OCc1cc(F)c(F)cc1F [MZ34] | can significantly reduce

Same assay, conditions: BV2, 100 ng/mL LPS, 10 μM compound, 12 hours

Row | SMILES | LPS-induced Il1b expression
44 | COc1cc(OC)c(CN2CCN(CCO)CC2)c(OCc2cc(C(F)(F)F)cc(C(F)(F)F)c2)c1 [MZ24] | can significantly reduce
45 | OCCN1CCN(Cc2ccc(OC(F)F)c(OCc3cc(C(F)(F)F)cc(C(F)(F)F)c3)c2)CC1 [MZ25] | can significantly reduce
46 | CCN(CC)CCNCc1ccc(OC(F)F)c(OCc2cc(C(F)(F)F)cc(C(F)(F)F)c2)c1 [MZ26] | can significantly reduce
47 | CN1CCN(Cc2ccc(OC(F)F)c(OCc3cc(F)c(F)cc3F)c2)CC1 [MZ28] | can significantly reduce
48 | OCCN1CCN(Cc2ccc(OC(F)F)c(OCc3cc(F)c(F)cc3F)c2)CC1 [MZ29] | can significantly reduce
49 | Fc1cc(COc2ccc(Br)cc2CNCCc2c[nH]c3ccccc23)ccc1C(F)(F)F [MZ31] | can significantly reduce
